The target in the experiment is T1, EphrinB2-EphB1 (Homo sapiens, UniProt P54762).
T1 construct: soluble human EphB1-His, EphB2-His, and EphB4-His ectodomains; commercially available human EphrinB1-Fc (EB1), EphrinB2-Fc (EB2), and EphrinB3-Fc (EB3) ectodomain proteins; purchased
T1 sequence (P54762 18-540 limits assumed): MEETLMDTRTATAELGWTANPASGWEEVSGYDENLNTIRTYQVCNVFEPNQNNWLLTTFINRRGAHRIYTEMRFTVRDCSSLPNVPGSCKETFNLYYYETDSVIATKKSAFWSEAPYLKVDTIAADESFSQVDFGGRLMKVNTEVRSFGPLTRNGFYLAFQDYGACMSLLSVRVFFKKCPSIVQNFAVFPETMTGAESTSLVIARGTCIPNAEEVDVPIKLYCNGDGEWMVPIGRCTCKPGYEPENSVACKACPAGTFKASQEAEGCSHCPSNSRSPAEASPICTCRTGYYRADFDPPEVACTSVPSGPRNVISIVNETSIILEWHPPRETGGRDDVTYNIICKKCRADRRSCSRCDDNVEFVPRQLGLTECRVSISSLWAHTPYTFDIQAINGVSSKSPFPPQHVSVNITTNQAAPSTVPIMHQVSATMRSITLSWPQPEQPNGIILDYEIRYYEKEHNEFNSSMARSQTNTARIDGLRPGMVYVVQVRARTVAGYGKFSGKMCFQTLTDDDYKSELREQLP
Description: Octet 80 sec association/500 sec dissociation, immobilized human EphrinB2-Fc binding to soluble human EphB1-His. Conditions: for inhibition at 3.2 µM / % Inhibited (AUC), Association + Dissociation / % Inhibition: Association + Dissociation (160 sec) / % Inhibited (AUC), Association / inhibition / IC50: EphB1; for inhibition at 3.2 µM / % Inhibition: Association + Dissociation (160 sec): 25 nM EphB1, 3.2 μM compound, A20-I as max control, 0* = less than 0, no inhibition; for EphB1 Inhibition Percent, Inhibition of Association ONLY: at 3.2 μM and 80 seconds; for EphB1 Inhibition Percent, Inhibition of Association ONLY / EphB1 Inhibition Percent, Inhibition of Association-Dissociation: immobilized human EphrinB2, 25 nM soluble human EphB1; for EphB1 Inhibition Percent, Inhibition of Association-Dissociation: at 3.2 μM and 580 seconds; for % Inhibited (AUC), Association + Dissociation: 0-160 sec; for % Inhibited (AUC), Association + Dissociation / % Inhibited (AUC), Association: 50 nM, 10 μM compound, Table 4; for inhibition of EphB1-EphrinB2 binding: association step, general. In a few lines: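 EphrinB2-Fc captured on AHC biosensors, then soluble His-tagged EphB ectodomain (25 nM for % inhibition runs) associated 80 s and dissociated 500 s in PBS, 0.05% Tween-20, 1% DMSO ± compound. Compounds tested at 0.1–3.2 μM with a 10 μM max standard; IC50 from AUC of full traces or at 75 s and 135 s.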

Setting [1] is: read-out: % Inhibition: Association + Dissociation (160 sec).
Where [2] appears, read: read-out: % Inhibition: Association ONLY (80 sec).
Where [3] appears, read: Association (75″), read-out: Absolute IC50.
[4] abbreviates: Association (75″), read-out: Relative IC50.
[5] abbreviates: Association (AUC), read-out: Absolute IC50.
The mark [6] stands for this setting: Association (AUC), read-out: Relative IC50.
[7] abbreviates: Dissociation (135″), read-out: Absolute IC50.
Where [8] appears, read: Dissociation (135″), read-out: Relative IC50.
Where [9] appears, read: Full AUC, read-out: Absolute IC50.
Where [10] appears, read: Full AUC, read-out: Relative IC50.
[11] abbreviates: highest dose, typically 3.2 μM, read-out: Association (% Inhibited (AUC)).
[12] abbreviates: highest dose, typically 3.2 μM, read-out: Association + Dissociation (% Inhibited (AUC)).

The term IC50 denotes the concentration at which inhibition is half-maximal.

Molecules are shown by their SMILES. Where “and” joins values, the source holds several entries; their conditions need not be identical. Equal entries are not always repeated. Where two headings read alike, the source gives them in different places.

Take `Oc1c(Cl)cc(CN2CCOCC2)c2cccnc12` [Compound 3, 7-chloro-5-(morpholinomethyl)quinolin-8-ol]: the inhibition at 3.2 µM is 48.4% under setting [1] and 34.2% under setting [2].
In the case of `Oc1c(Cl)cc(CN2CCOCC2)c2cccnc12` [Compound 4, 4-((7-chloro-8-hydroxyquinolin-1-ium-5-yl)methyl)morpholin-4-ium chloride], the “EphB1 Inhibition Percent, Inhibition of Association ONLY” value worked out at 34.2% and the “EphB1 Inhibition Percent, Inhibition of Association-Dissociation” value was 48.4%.
In the case of `Oc1c(Br)cc(CN2CCOCC2)c2cccnc12` [Compound 5, 7-bromo-5-(morpholinomethyl)quinolin-8-ol], the inhibition at 3.2 µM turned out to be 45.2% under setting [1] and 25.1% under setting [2].
For the molecule `Oc1c(Br)cc(CN2CCOCC2)c2cccnc12` [Compound 6, 4-((7-bromo-8-hydroxyquinolin-1-ium-5-yl)methyl)morpholin-4-ium chloride], the “EphB1 Inhibition Percent, Inhibition of Association ONLY” value was found to be 33.5% and the “EphB1 Inhibition Percent, Inhibition of Association-Dissociation” value is reported as 48.7%.
Regarding `Oc1c(I)cc(CN2CCOCC2)c2cccnc12` [Compound 7, 7-iodo-5-(morpholinomethyl)quinolin-8-ol], the “% Inhibited (AUC), Association + Dissociation” value was 38.4%; the “% Inhibition: Association + Dissociation (160 sec)” value (“% Inhibition” below) is 53.1% and 44.3% and 52.4%; the “% Inhibited (AUC), Association” value stood at 25.0%. Moreover, the inhibition at 3.2 µM under setting [1] is 46.8%. Moreover, the inhibition at 3.2 µM under setting [2] amounted to 29.5%. Under “10 μM 2×HCl salt, read-out: % Inhibited (AUC), Association”, the inhibition is 36.6%. For the same molecule, under setting [3], the IC50 is over 3200 nM. Further, the IC50 under setting [4] worked out at 850 nM. Moreover, the IC50 under setting [5] is over 3200 nM. For the same molecule, the IC50 under setting [6] was determined as 980 nM. Moreover, the IC50 under setting [7] is 850 nM. The 50% inhibitory concentration (IC50) under setting [8] came to 440 nM. Moreover, the 50% inhibitory concentration (IC50) under setting [9] is 1480 nM. Moreover, the IC50 under setting [10] came to 240 nM. Further, the inhibition (first 160 sec, 10 μM 2×HCl salt, read-out: % Inhibited (AUC), Association + Dissociation) is 48.5%. In addition, the inhibition under setting [11] turned out to be 32.6%. Also, under setting [12], the inhibition was 49.4%.
On to `Oc1c(I)cc(CN2CCOCC2)c2cccnc12` [Compound 8, 4-((8-hydroxy-7-iodoquinolin-1-ium-5-yl)methyl)morpholin-4-ium chloride], for which the “EphB1 Inhibition Percent, Inhibition of Association-Dissociation” value stood at 53.2%.
Regarding `O=[N+]([O-])c1cc(CN2CCOCC2)c2cccnc2c1O` [Compound 9, 5-(morpholinomethyl)-7-nitroquinolin-8-ol], the “inhibition of EphB1-EphrinB2 binding” value worked out at 25%; the “EphB1 Inhibition Percent, Inhibition of Association ONLY” value was 22.5% and 16.1% and 15.7%; the “EphB1 Inhibition Percent, Inhibition of Association-Dissociation” value was 36.9% and 29.8% and 22.8%. In addition, where the note is “listed as A19-NO2 (A)”, the “% Inhibition” value was 36.9% and 29.8%.
Turning to `O=[N+]([O-])c1cc(CN2CCOCC2)c2cccnc2c1O` [Compound 10, 4-((8-hydroxy-7-nitroquinolin-1-ium-5-yl)methyl)morpholin-4-ium chloride], the “EphB1 Inhibition Percent, Inhibition of Association-Dissociation” value is 23.1% and 14.2% and 20.2%. Further, the “% Inhibition” value (listed as A19-NO2 (B)) is given as 14.2%.
Regarding `OCc1ccc2c(CN3CCOCC3)cc(Br)c(O)c2n1` [Compound 13, 7-bromo-2-(hydroxymethyl)-5-(morpholinomethyl)quinolin-8-ol], the inhibition at 3.2 µM is, setting by setting: under setting [1], 29.1%; under setting [2], 12.4%.
As to `O=S1(=O)CCN(Cc2ccc(O)c3ncccc23)CC1` [Compound 15, 4-((8-hydroxyquinolin-1-ium-5-yl)methyl)thiomorpholin-4-ium 1,1-dioxide chloride], the “EphB1 Inhibition Percent, Inhibition of Association ONLY” value amounted to 16.8% and the “EphB1 Inhibition Percent, Inhibition of Association-Dissociation” value is 28.6%.
For `O=[N+]([O-])c1cc(CN2CCS(=O)(=O)CC2)c2cccnc2c1O` [Compound 20, 4-((8-hydroxy-7-nitroquinolin-5-yl)methyl)thiomorpholine 1,1-dioxide], the “inhibition of EphB1-EphrinB2 binding” value was 25%. Moreover, the inhibition at 3.2 µM under setting [1] stood at 36%. Besides, the inhibition at 3.2 µM under setting [2] is 24%.
As for `Oc1ccc(CN2CCN(c3ccc(Br)cc3)CC2)c2cccnc12` [Compound 26, 5-((4-(4-bromophenyl)piperazin-1-yl)methyl)quinolin-8-ol], the “EphB1 Inhibition Percent, Inhibition of Association ONLY” value is reported as 11.2% and the “EphB1 Inhibition Percent, Inhibition of Association-Dissociation” value was 36.6%. Where the note is “listed as QPB4”, the “% Inhibition” value is given as 35.0%. For the same molecule, the inhibition at 3.2 µM under setting [1] was determined as 30.6%.
On to `Oc1c(Br)cc(CN2CCN(c3ccc(Br)cc3)CC2)c2cccnc12` [Compound 28, 7-bromo-5-((4-(4-bromophenyl)piperazin-1-yl)methyl)quinolin-8-ol], for which the “% Inhibited (AUC), Association + Dissociation” value was found to be 38.6% and the “% Inhibited (AUC), Association” value worked out at 24.7%. In addition, under setting [3], the half-maximal inhibitory concentration (IC50) was over 3200 nM. Also, the IC50 under setting [4] was 100 nM. Further, the IC50 under setting [5] is over 3200 nM. Moreover, the IC50 under setting [6] was determined as 100 nM. Further, the IC50 under setting [7] is 360 nM. The IC50 under setting [8] was 80 nM. For the same molecule, under setting [9], the IC50 came to 500 nM. Besides, the IC50 under setting [10] was found to be 170 nM. The inhibition under setting [11] was 39.1%. The inhibition under setting [12] stood at 53.1%.
As for `Oc1c(Br)cc(CN2CCN(c3ccc(Br)cc3)CC2)c2cccnc12` [Compound 30, 7-bromo-5-((4-(4-bromophenyl)piperazin-1-ium-1-yl)methyl)-8-hydroxyquinolin-1-ium chloride], the “EphB1 Inhibition Percent, Inhibition of Association ONLY” value was 24.7% and 39.1%; the “EphB1 Inhibition Percent, Inhibition of Association-Dissociation” value is 38.6% and 53.1%.
Turning to `Oc1ccc(CN2CCN(c3ccc(Br)cn3)CC2)c2cccnc12` [Compound 33, 5-((4-(5-bromopyridin-2-yl)piperazin-1-yl)methyl)quinolin-8-ol], the inhibition at 3.2 µM under setting [1] was 58.6% and the inhibition at 3.2 µM under setting [2] stood at 46.4%.
`Oc1ccc(CN2CCN(Cc3ccccc3)CC2)c2cccnc12` [Compound 41, 5-((4-benzylpiperazin-1-yl)methyl)quinolin-8-ol]: the inhibition at 3.2 µM reads like this: under setting [1], 27.7%; under setting [2], 18.7%.
For the molecule `Oc1ccc(CN2CCN(Cc3ccc(Br)cc3)CC2)c2cccnc12` [Compound 42, 5-((4-(4-bromobenzyl)piperazin-1-yl)methyl)quinolin-8-ol], the inhibition at 3.2 µM by setting is: under setting [1], 36.5%; under setting [2], 19.9%.
For `Oc1c(Br)cc(CN2CCN(Cc3ccc(Br)cc3)CC2)c2cccnc12` [Compound 44, 7-bromo-5-((4-(4-bromobenzyl)piperazin-1-yl)methyl)quinolin-8-ol], in that order: 49.9% and 37.3%.
The corresponding values for `Oc1ccc(CN2CCN(Cc3ccc(C(F)(F)F)cc3)CC2)c2cccnc12` [Compound 48, 5-((4-(4-(trifluoromethyl)benzyl)piperazin-1-yl)methyl)quinolin-8-ol] are 19.8% and 2.6%.
For `O=C(Cc1ccccc1)Nc1ccc(N2CCN(Cc3ccc(O)c4ncccc34)CC2)cc1` [Compound 51, N-(4-(4-((8-hydroxyquinolin-5-yl)methyl)piperazin-1-yl)phenyl)-2-phenylacetamide], the inhibition at 3.2 µM stood at 61.2% under setting [1] and 52.7% under setting [2].
Regarding `Oc1ccc(CN2CCN(c3ccc(F)cc3F)CC2)c2cccnc12` [Compound 62, 5-((4-(2,4-difluorophenyl)piperazin-1-yl)methyl)quinolin-8-ol], the “EphB1 Inhibition Percent, Inhibition of Association ONLY” value amounted to 17.9% and the “EphB1 Inhibition Percent, Inhibition of Association-Dissociation” value worked out at 14.7%.
Turning to `COc1ccc2[nH]cc(C(=O)N3CCOCC3)c2c1` [Compound 63, (5-methoxy-1H-indol-3-yl)(morpholino)methanone], the “EphB1 Inhibition Percent, Inhibition of Association ONLY” value is 1.2%. Under setting [1], the inhibition at 3.2 µM came out at 0%. The inhibition at 3.2 µM under setting [2] turned out to be 1.19%.

The record behind these values is patent US20260374739A1, “SMALL MOLECULAR WEIGHT CHEMICAL COMPOUND TO ANTAGONIZE EPH-EPHRIN TETRAMERIZATION AND INHIBIT BIDIRECTIONAL SIGNALING” (THE BOARD OF REGENTS OF THE UNIVERSITY OF TEXAS SYSTEM, priority 2022, published 2026).
